Reference: paper PMC9386018, “A lymphatic-absorbed multi-targeted kinase inhibitor for myelofibrosis therapy” (Nature Communications, 2022)
Several values for one entry are separate records, joined by “and”; a condition that tells them apart may be missing. Equal values may be shown once.

Experiment: Pharmacokinetic analysis of plasma after intravenous and oral dosing

## O=C(O)CCOCCOCCOCCONC(=O)c1ccc(F)c(F)c1Nc1ccc(I)cc1F [LP-622, 1-(3,4-difluoro-2-((2-fluoro-4-iodophenyl)amino)phenyl)-1-oxo-3,6,9,12-tetraoxa-2-azapentadecan-15-oic acid]
Supplementary Figure 6a, i.v., Time 0.167 h, individual replicates
  Concentration: 6.65 ng/mL and 5.91 ng/mL
Supplementary Figure 6a, p.o., Time 0.167 h, individual replicates
  Concentration: 36.6 ng/mL and 47.3 ng/mL and 12.7 ng/mL
Supplementary Figure 6a, p.o., Time 0.5 h, individual replicates
  Concentration: 11.6 ng/mL and 6.25 ng/mL
Supplementary Figure 6a, p.o., Time 1 h, individual replicates
  Concentration: 8.93 ng/mL and 16.9 ng/mL and 5.41 ng/mL
female, CD-1, mouse, plasma, iv, 15 mg kg^−1, Concentration, Supplementary Figure 6a, Time 0.167 h, individual replicates
  concentration at 0.167 h: 9.48 ng/mL
female, CD-1, mouse, plasma, iv, 15 mg kg^−1, Concentration, Time 0.5 h, individual animals, Supplementary Figure 12b
  concentration at 0.5 h: 642 ng/mL
female, CD-1, mouse, plasma, iv, 15 mg kg^−1, Concentration, Time 1 h, individual animals, Supplementary Figure 12b
  concentration at 1 h: 694 ng/mL
female, CD-1, mouse, plasma, iv, 15 mg kg^−1, Concentration, Time 2 h, individual animals, Supplementary Figure 12b
  concentration at 2 h: 122 ng/mL
female, CD-1, mouse, plasma, iv, 15 mg kg^−1, Concentration, Time 4 h, individual animals, Supplementary Figure 12b
  concentration at 4 h: 36.6 ng/mL
female, CD-1, mouse, plasma, iv, 15 mg kg^−1, Concentration, Time 7 h, individual animals, Supplementary Figure 12b
  concentration at 7 h: 23.1 ng/mL
female, CD-1, mouse, plasma, iv, 15 mg kg^−1, Concentration, Time 16 h, individual animals, Supplementary Figure 12b
  concentration at 16 h: 1.67 ng/mL
female, CD-1, mouse, plasma, iv, 15 mg kg^−1, Concentration, Time 24 h, individual animals, Supplementary Figure 12b
  concentration at 24 h: 3.48 ng/mL
female, CD-1, mouse, plasma, po, 400 mg kg^−1, Concentration, Supplementary Figure 6a, Time 0.5 h, individual replicates
  concentration at 0.5 h: 8.5 ng/mL
female, CD-1, mouse, plasma, po, 400 mg kg^−1, Concentration, Supplementary Figure 6a, Time 2 h, individual replicates
  concentration at 2 h: 3.37 ng/mL
i.v., Time 0.167 h, individual animals, Supplementary Figure 12b
  Concentration: 6980 ng/mL and 3600 ng/mL and 9800 ng/mL
i.v., Time 0.5 h, individual animals, Supplementary Figure 12b
  Concentration: 950 ng/mL and 1228 ng/mL
i.v., Time 1 h, individual animals, Supplementary Figure 12b
  Concentration: 1082 ng/mL
i.v., Time 2 h, individual animals, Supplementary Figure 12b
  Concentration: 115.8 ng/mL and 191 ng/mL
i.v., Time 4 h, individual animals, Supplementary Figure 12b
  Concentration: 46.7 ng/mL and 58.4 ng/mL
i.v., Time 7 h, individual animals, Supplementary Figure 12b
  Concentration: 33.2 ng/mL and 30.9 ng/mL
i.v., Time 16 h, individual animals, Supplementary Figure 12b
  Concentration: 1.98 ng/mL
i.v., Time 24 h, individual animals, Supplementary Figure 12b
  Concentration: 2.84 ng/mL and 3.15 ng/mL
p.o., Time 0.167 h, individual animals, Supplementary Figure 12b
  Concentration: 470 ng/mL and 532 ng/mL and 956 ng/mL
p.o., Time 0.5 h, individual animals, Supplementary Figure 12b
  Concentration: 3100 ng/mL and 1908 ng/mL and 6600 ng/mL
p.o., Time 1 h, individual animals, Supplementary Figure 12b
  Concentration: 1430 ng/mL and 460 ng/mL and 669 ng/mL
p.o., Time 2 h, individual animals, Supplementary Figure 12b
  Concentration: 1190 ng/mL and 582 ng/mL and 3880 ng/mL
p.o., Time 4 h, individual animals, Supplementary Figure 12b
  Concentration: 221 ng/mL and 348 ng/mL and 1410 ng/mL
p.o., Time 7 h, individual animals, Supplementary Figure 12b
  Concentration: 1250 ng/mL and 340 ng/mL and 726 ng/mL
p.o., Time 16 h, individual animals, Supplementary Figure 12b
  Concentration: 461 ng/mL and 352 ng/mL and 189 ng/mL
p.o., Time 24 h, individual animals, Supplementary Figure 12b
  Concentration: 55.8 ng/mL and 114 ng/mL and 252 ng/mL
